From US10517889B2, “Modulators of SMAD7 expression” (Ionis Pharmaceuticals, Inc., priority 2017, dated 2019) come the findings set out here.

Strand notation (5' to 3'): a small letter for the sugar, then the base; units joined by * are phosphorothioate-linked, units joined directly phosphodiester-linked; [ ] holds rarer units or linkages, { } end groups; capitals alone tell only the bases. e = 2'-O-(2-methoxyethyl) (MOE); [5mC] = 5-methylcytosine; d = 2'-deoxy (DNA)

The first series deals with human SMAD7 mRNA. Description: Antisense inhibition of human SMAD7 mRNA expression in Hep3B cells by 5-10-5 MOE gapmers, single concentration, electroporation, RT-PCR (Example 1, Study 1 and 2). It is filed as cell-based. Conditions: Study 2, electroporation with 15,000 nM antisense oligonucleotide, 5-10-5 MOE gapmers targeting SEQ ID NO: 1 and 2. In outline: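 Hep3B cells (20,000/well) electroporated with 5-10-5 MOE gapmer at 5,000 nM or 15,000 nM for approximately 24 h. SMAD7 mRNA quantified by real-time PCR with primer probe set RTS5062 and normalized to RIBOGREEN total RNA. Values are percent inhibition relative to untreated controls.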
The term % Inhibition denotes the percentage by which the read-out fell short of the control. Read a low % Inhibition as little suppression. Take “771692 (antisense e[5mC]*e[5mC]*e[5mC]*eA*eG*dG*dA*dG*dG*dG*dT*dA*dT*dG*d[5mC]*eA*e[5mC]*eA*e[5mC]*eT) [compound 771692]”: the “% Inhibition” value was found to be 18%.

As to “771694 (antisense e[5mC]*eT*e[5mC]*e[5mC]*e[5mC]*dA*dG*dG*dA*dG*dG*dG*dT*dA*dT*eG*e[5mC]*eA*e[5mC]*eA) [compound 771694]”, the “% Inhibition” value is recorded as 0%.

On to “771695 (antisense eT*e[5mC]*eT*e[5mC]*e[5mC]*d[5mC]*dA*dG*dG*dA*dG*dG*dG*dT*dA*eT*eG*e[5mC]*eA*e[5mC]) [compound 771695]”, for which the “% Inhibition” value was determined as 22%.

With “771700 (antisense eT*eA*eT*eG*e[5mC]*dA*d[5mC]*dA*d[5mC]*dT*d[5mC]*dT*d[5mC]*d[5mC]*d[5mC]*eA*eG*eG*eA*eG) [compound 771700]”, the “% Inhibition” value worked out at 9%.

On to “771702 (antisense eA*eG*eG*eG*eT*dA*dT*dG*d[5mC]*dA*d[5mC]*dA*d[5mC]*dT*d[5mC]*eT*e[5mC]*e[5mC]*e[5mC]*eA) [compound 771702]”, for which the “% Inhibition” value was found to be 24%.

In the case of “771703 (antisense eG*eG*eA*eG*eG*dG*dT*dA*dT*dG*d[5mC]*dA*d[5mC]*dA*d[5mC]*eT*e[5mC]*eT*e[5mC]*e[5mC]) [compound 771703]”, the “% Inhibition” value was 31%.

As for “771707 (antisense eT*eT*eG*eT*eT*d[5mC]*d[5mC]*dT*d[5mC]*dT*dG*d[5mC]*dA*d[5mC]*d[5mC]*e[5mC]*eT*eG*eG*eG) [compound 771707]”, the “% Inhibition” value amounted to 42%.

Turning to “771708 (antisense eG*eG*eA*eT*eA*dA*dA*dA*dG*dG*dA*dA*dA*dG*dG*eA*eG*eT*eT*eT) [compound 771708]”, the “% Inhibition” value is 0%.

In the case of “771710 (antisense eG*eG*eG*e[5mC]*eT*dG*d[5mC]*d[5mC]*d[5mC]*dA*dT*dT*d[5mC]*d[5mC]*dT*eA*eG*e[5mC]*eG*e[5mC]) [compound 771710]”, the “% Inhibition” value came to 40%.

“771716 (antisense eT*e[5mC]*eG*eA*eA*dT*d[5mC]*dA*d[5mC]*d[5mC]*d[5mC]*dT*dT*dT*d[5mC]*e[5mC]*eA*eT*eT*eA) [compound 771716]”: the “% Inhibition” value turned out to be 24%.

As for “771718 (antisense eA*eA*eA*eG*eT*dT*d[5mC]*dT*dA*dG*dT*dG*dT*d[5mC]*dT*eA*e[5mC]*eT*e[5mC]*e[5mC]) [compound 771718]”, the “% Inhibition” value is reported as 29%.

Regarding “771719 (antisense eA*e[5mC]*eT*eG*eA*d[5mC]*dT*dT*dG*d[5mC]*dA*dG*dG*dT*dG*eA*e[5mC]*eT*eG*eG) [compound 771719]”, the “% Inhibition” value was 35%.

As to “771723 (antisense e[5mC]*e[5mC]*eA*eA*eG*dG*dT*dT*dA*d[5mC]*dA*dT*dA*d[5mC]*dA*eA*e[5mC]*e[5mC]*eT*eG) [compound 771723]”, the “% Inhibition” value was determined as 44%.

Turning to “771724 (antisense e[5mC]*e[5mC]*eT*eT*e[5mC]*dT*d[5mC]*d[5mC]*d[5mC]*dA*dG*dA*dA*d[5mC]*d[5mC]*eT*eT*eG*eG*e[5mC]) [compound 771724]”, the “% Inhibition” value stood at 27%.

Still in this series, the particulars now being: electroporation with 15,000 nM antisense oligonucleotide (Study 2), 5-10-5 MOE gapmers targeting SEQ ID NO: 1 and 2.
On to “771688 (antisense e[5mC]*eG*eT*eT*eT*dA*dA*dT*dG*dG*dA*dA*d[5mC]*dA*dT*eA*eA*eA*e[5mC]*eT) [compound 771688]”, for which the “% Inhibition of SMAD7 mRNA” value was 13% and the “% inhibition of SMAD7 mRNA expression” value is 0%.

Take “771689 (antisense eA*eG*eT*eG*eT*dA*d[5mC]*dA*dT*dT*dT*dT*dA*dA*dA*eA*eA*eT*e[5mC]*eG) [compound 771689]”: the “% inhibition of SMAD7 mRNA expression” value was found to be 30%.

As for “771696 (antisense e[5mC]*eT*e[5mC]*eT*e[5mC]*d[5mC]*d[5mC]*dA*dG*dG*dA*dG*dG*dG*dT*eA*eT*eG*e[5mC]*eA) [compound 771696]”, the “% Inhibition of SMAD7 mRNA” value is 0%.

Take “771712 (antisense eA*eT*eT*e[5mC]*eT*dT*dT*dT*dA*dG*d[5mC]*d[5mC]*d[5mC]*dA*dA*e[5mC]*eT*eG*eT*eT) [compound 771712]”: the “% Inhibition of SMAD7 mRNA” value turned out to be 27%.

Take “771720 (antisense e[5mC]*eA*eG*eG*e[5mC]*dA*dG*dA*dG*d[5mC]*dT*dA*dT*dG*d[5mC]*eT*eT*e[5mC]*eA*eA) [compound 771720]”: the “% Inhibition of SMAD7 mRNA” value came to 37%.

Staying with this series, now noted: electroporation, 5,000 nM, approximately 24 hours, relative to untreated control cells, gapmers targeting SEQ ID NO: 1 and 2.
For the substance “771707 (antisense eT*eT*eG*eT*eT*d[5mC]*d[5mC]*dT*d[5mC]*dT*dG*d[5mC]*dA*d[5mC]*d[5mC]*e[5mC]*eT*eG*eG*eG) [compound 771707]”, the “% inhibition of SMAD7 mRNA expression” value was determined as 0%.

In the case of “771723 (antisense e[5mC]*e[5mC]*eA*eA*eG*dG*dT*dT*dA*d[5mC]*dA*dT*dA*d[5mC]*dA*eA*e[5mC]*e[5mC]*eT*eG) [compound 771723]”, the “% inhibition of SMAD7 mRNA expression” value is 0%.

Still in this series, the particulars now being: electroporation, 15,000 nM antisense oligonucleotide (Study 2), 5-10-5 MOE gapmers targeting SEQ ID NO: 1 and 2.
In the case of “771690 (antisense e[5mC]*e[5mC]*eT*eA*eG*dT*dT*d[5mC]*dG*d[5mC]*dA*dG*dA*dG*dT*e[5mC]*eG*eG*e[5mC]*eT) [compound 771690]”, the “% inhibition of SMAD7 mRNA expression” value came out at 43%.

For the substance “771696 (antisense e[5mC]*eT*e[5mC]*eT*e[5mC]*d[5mC]*d[5mC]*dA*dG*dG*dA*dG*dG*dG*dT*eA*eT*eG*e[5mC]*eA) [compound 771696]”, the “% inhibition of SMAD7 mRNA expression” value was found to be 0%.

In the case of “771697 (antisense e[5mC]*eA*e[5mC]*eT*e[5mC]*dT*d[5mC]*d[5mC]*d[5mC]*dA*dG*dG*dA*dG*dG*eG*eT*eA*eT*eG) [compound 771697]”, the “% inhibition of SMAD7 mRNA expression” value stood at 5%.

Regarding “771698 (antisense e[5mC]*eA*e[5mC]*eA*e[5mC]*dT*d[5mC]*dT*d[5mC]*d[5mC]*d[5mC]*dA*dG*dG*dA*eG*eG*eG*eT*eA) [compound 771698]”, the “% inhibition of SMAD7 mRNA expression” value is reported as 43%.

Consider “771706 (antisense eG*eG*eG*e[5mC]*e[5mC]*dT*dG*dG*dA*d[5mC]*d[5mC]*dA*dA*dA*dT*e[5mC]*e[5mC]*eA*eA*e[5mC]) [compound 771706]”, for which the “% inhibition of SMAD7 mRNA expression” value worked out at 22%.

Consider “771712 (antisense eA*eT*eT*e[5mC]*eT*dT*dT*dT*dA*dG*d[5mC]*d[5mC]*d[5mC]*dA*dA*e[5mC]*eT*eG*eT*eT) [compound 771712]”, for which the “% inhibition of SMAD7 mRNA expression” value is 3%.

With “771713 (antisense eT*eG*e[5mC]*e[5mC]*eT*dA*d[5mC]*dA*d[5mC]*dA*d[5mC]*dA*dA*dA*dA*eA*eG*e[5mC]*e[5mC]*eA) [compound 771713]”, the “% inhibition of SMAD7 mRNA expression” value is on record as 15%.

Turning to “771714 (antisense eT*e[5mC]*eT*eG*eG*dA*d[5mC]*dT*dA*dA*dA*dG*d[5mC]*dT*dT*e[5mC]*e[5mC]*eA*e[5mC]*eG) [compound 771714]”, the “% inhibition of SMAD7 mRNA expression” value stood at 44%.

“771720 (antisense e[5mC]*eA*eG*eG*e[5mC]*dA*dG*dA*dG*d[5mC]*dT*dA*dT*dG*d[5mC]*eT*eT*e[5mC]*eA*eA) [compound 771720]”: the “% inhibition of SMAD7 mRNA expression” value was found to be 20%.

Consider “771721 (antisense e[5mC]*e[5mC]*e[5mC]*eA*eG*d[5mC]*dA*d[5mC]*dT*dG*dT*dG*dA*dT*dG*eT*e[5mC]*e[5mC]*eA*eG) [compound 771721]”, for which the “% inhibition of SMAD7 mRNA expression” value stood at 43%.

Consider “771722 (antisense eA*eG*eA*eG*eG*dG*dA*dG*d[5mC]*dT*d[5mC]*d[5mC]*dA*dG*dG*eA*eA*eT*eT*eT) [compound 771722]”, for which the “% inhibition of SMAD7 mRNA expression” value is on record as 10%.

The series is the same for the next values; noted with them: electroporation, 15,000 nM, approximately 24 hours, relative to untreated control cells, gapmers targeting SEQ ID NO: 1 and 2.
For the substance “771693 (antisense eT*e[5mC]*e[5mC]*e[5mC]*eA*dG*dG*dA*dG*dG*dG*dT*dA*dT*dG*e[5mC]*eA*e[5mC]*eA*e[5mC]) [compound 771693]”, the “% inhibition of SMAD7 mRNA expression” value is listed as 45%.

Take “771701 (antisense eG*eG*eT*eA*eT*dG*d[5mC]*dA*d[5mC]*dA*d[5mC]*dT*d[5mC]*dT*d[5mC]*e[5mC]*e[5mC]*eA*eG*eG) [compound 771701]”: the “% inhibition of SMAD7 mRNA expression” value is reported as 34%.

In the case of “771709 (antisense eT*eG*eA*eA*e[5mC]*d[5mC]*d[5mC]*dT*d[5mC]*dA*d[5mC]*dA*dT*d[5mC]*dA*e[5mC]*eA*e[5mC]*eT*e[5mC]) [compound 771709]”, the “% inhibition of SMAD7 mRNA expression” value amounted to 38%.

“771725 (antisense e[5mC]*eT*eT*eG*eA*dG*dG*dG*dA*dG*d[5mC]*dT*dG*dG*dT*eA*eG*eA*eG*eT) [compound 771725]”: the “% inhibition of SMAD7 mRNA expression” value is 8%.
